pIC50: −log10 of the molar value.
Biological target: T1, substance P receptor (Homo sapiens, UniProt P25103)
T1 construct: The receptor was prepared from human lymphoblast cells (IM-9); endogenous in cells; host or cells: IM-9 human lymphoblast cells (crude membrane preparation)
Experiment: Radioligand receptor binding inhibitory activity using receptor from human lymphoblast cells (IM-9), 125I-BHSP
Conditions: human IM-9 cell receptor, 25° C., 30 minutes, pH 7.4, n=1
Protocol: Radioligand receptor binding inhibitory activity
Binding inhibitory activity using receptor from human lymphoblast cells (IM-9)
The method of A. Margaret "Molecular Pharmacology 42, p.458 (1992)" was modified and used. The receptor was prepared from human lymphoblast cells (IM-9). IM-9 cells (2×10^5 cells/ml) were inoculated and incubated for 3 days (one liter), which was then subjected to centrifuge for 5 minutes at 500×g to obtain cell pellets. The pellets were washed once with phosphate buffer (Flow Laboratories, CAT. No. 28-103-05), which were then crushed using Polytron.homogenizer "Kinematika, Germany" in 30 ml of 50 mM Tris-HCl buffer (pH 7.4) containing 120 mM sodium chloride, 5 mM potassium chloride, 2 μg/ml chymostatin, 40 μg/ml bacitracin, 5 μg/ml phosphoramidon, 0.5 mM phenylmethyl sulfonyl fluoride, 1 mM ethylenediamine tetra-acetic acid, which was subjected to centrifuge at 40,000×g for 20 minutes. The residue was washed twice with 30 ml of the above-mentioned buffer, which was then preserved frozen (-80° C.) as a specimen of the receptor.
The specimen was suspended in a reaction buffer (50 mM Tri-HCl buffer (pH 7.4), 0.02% bovine serum albumin, 1 mM phenylmethylsulfonyl fluoride, 2 μg/chymostatin, 40 μg/ml bacitracin, 3 mM manganese chloride) and 100 ul portion was the suspension was used in the reaction. After addition of the sample and ^125 I-BHSP (0.46 KBq), the reaction was allowed to proceed in 0.2 ml of reaction buffer at 25° C. for 30 minutes. The amount of nonspecific binding was determined by adding substance P at a final concentration of 2×10^-6 M. After the reaction, using a cell harvester (290 PHD, Cambridge Technology, Inc, U.S.A.), rapid filtration was carried out through a glass filter (GF/B, Whatman, U.S.A.) to stop the reaction. After washing three times with 250 ul of 50 mM of Tris-HCl buffer (pH 7.4) containing 0.02% bovine serum albumin, the radioactivity remaining on the filter was determined with a gamma counter. Before use, the filter was immersed in 0.1% polyethyleneimine for 24 hours and air-dried. […] (Radioligand means substance P labelled with ^125 I.) The number of this experiment is one.

T1 sequence (P25103 whole entry): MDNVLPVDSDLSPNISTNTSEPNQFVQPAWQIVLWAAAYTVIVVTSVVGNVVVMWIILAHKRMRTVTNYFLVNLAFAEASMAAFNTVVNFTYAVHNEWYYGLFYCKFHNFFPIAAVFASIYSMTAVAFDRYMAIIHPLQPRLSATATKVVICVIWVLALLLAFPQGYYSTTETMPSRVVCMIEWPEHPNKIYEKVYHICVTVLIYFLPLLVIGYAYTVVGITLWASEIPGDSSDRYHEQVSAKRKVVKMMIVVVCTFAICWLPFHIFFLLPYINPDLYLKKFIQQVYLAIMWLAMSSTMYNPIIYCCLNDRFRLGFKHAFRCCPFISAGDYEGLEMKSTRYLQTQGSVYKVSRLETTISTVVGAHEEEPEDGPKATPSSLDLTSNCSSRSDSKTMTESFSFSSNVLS

| pIC50 | Molecule |
| --- | --- |
| 8.68 | CN1CCc2c(c(-c3ccc(F)cc3)c(C(=O)N(C)Cc3cc(C(F)(F)F)cc(C(F)(F)F)c3)n(C)c2=O)C1 [Example 34, N-[3,5-Bis(trifluoromethyl)benzyl]-4-(4-fluorophenyl)-1,2,5,6,7,8-hexahydro-N,2,6-trimethyl-1-oxo-3-pyrido [4,3-c]pyridinecarboxamide] |
| 9.46 | CN(Cc1cc(C(F)(F)F)cc(C(F)(F)F)c1)C(=O)c1c(-c2ccc(F)cc2)c2ccc(=O)n(C)c2c(=O)n1C [Example 35, N-[3,5-Bis(trifluoromethyl)benzyl]-5-(4-fluorophenyl)-1,2,7,8-tetrahydro-N,1,7-trimethyl-2,8-dioxo-6-pyrido [3,4-b]pyridinecarboxamide] |
| 10.00 | CN(Cc1cc(C(F)(F)F)cc(C(F)(F)F)c1)C(=O)c1c(-c2ccc(F)cc2)c2c(c(=O)n1C)N(C)CCC2 [Example 30, N-[3,5-Bis(trifluoromethyl)benzyl]-5-(4-fluorophenyl)-1,2,3,4,7,8-hexahydro-N, 1,7-trimethyl-8-oxo-6-pyrido [3,4-b]pyridinecarboxamide] |
| 9.62 | CN(Cc1cc(C(F)(F)F)cc(C(F)(F)F)c1)C(=O)c1c(-c2ccccc2)c2ccsc2c(=O)n1C [Example 44, N-[3,5-bis(trifluoromethyl)benzyl]-6,7-dihydro-N, 6-dimethyl-7-oxo-4-phenyl-5-thieno[2,3-c]pyridinecarboxamide] |
| 9.48 | CN(Cc1cc(C(F)(F)F)cc(C(F)(F)F)c1)C(=O)c1c(-c2ccc(F)cc2)c2cc[n+](C)cc2c(=O)n1C [Example 31, 3-[N-[3,5-Bis(trifluoromethyl)benzyl]-N-methylaminocarbonyl]-4-(4-fluorophenyl)-1,2-dihydro-2,7-dimethyl-1-oxopyrido[3,4-c]pyridinium iodide] |
| 9.15 | CN(Cc1cc(C(F)(F)F)cc(C(F)(F)F)c1)C(=O)c1c(-c2ccccc2)c2c(c(=O)n1C)NCCC2 [Example 55, N-[3,5-Bis(trifluoromethyl)benzyl]-1,2,3,4,7,8-hexahydro-5-phenyl-N,7-dimethyl-8-oxo-6-pyrido[3,4-b]pyridinecarboxamide] |
| 8.96 | CN(Cc1cc(C(F)(F)F)cc(C(F)(F)F)c1)C(=O)c1c(-c2ccc(F)cc2)c2cc(Cl)cnc2c(=O)n1C [Example 6, N-[3,5-Bis(trifluoromethyl)benzyl]-3-chloro-5-(4-fluorophenyl)-7,8-dihydro-N, 7-dimethyl-8-oxo-6-pyrido[3,4-b]pyridinecarboxamide] |
| 7.48 | Cc1ccccc1-c1c(C(=O)N(C)Cc2cc(C(F)(F)F)cc(C(F)(F)F)c2)n(C)c(=O)c2cccnc12 [Example 10, N-[3,5-Bis(trifluoromethyl)benzyl]-5,6-dihydro-N, 6-dimethyl-8-(2-methylphenyl)-5-oxo-7-pyrido[4,3-b]pyridinecarboxamide] |
| 7.80 | CN(Cc1cc(C(F)(F)F)cc(C(F)(F)F)c1)C(=O)c1c(-c2ccc(F)cc2)c2c[n+](C)ccc2c(=O)n1C [Example 33, 3-[N-[3,5-Bis(trifluoromethyl)benzyl]-N-methylaminocarbonyl]-4-(4-fluorophenyl)-1,2-dihydro-2,6-dimethyl-1-oxopyrido[4,3-c]pyridinium iodide] |
| 9.03 | CN(Cc1cc(C(F)(F)F)cc(C(F)(F)F)c1)C(=O)c1c(-c2ccc(F)cc2)c2ncccc2c(=O)n1C [Example 19, N-[3,5-Bis(trifluoromethyl)benzyl]-8-(4-fluorophenyl)-5,6-dihydro-N, 6-dimethyl-5-oxo-7-pyrido[4,3-b]pyridine carboxamide] |
| 7.85 | COc1ccccc1CNC(=O)c1c(-c2ccc(F)cc2)c2cccnc2c(=O)n1C [Example 3, 5-(4-Fluorophenyl)-7,8-dihydro-N-(2-methoxybenzyl)-7-methyl-8-oxo-6-pyrido[3,4-b]pyridinecarboxamide] |
| 8.60 | COc1ccccc1CN(C)C(=O)c1c(-c2ccc(F)cc2)c2cccnc2c(=O)n1C [Example 4, 5-(4-Fluorophenyl)-7,8-dihydro-N-(2-methoxybenzyl)-N,7-dimethyl-8-oxo-6-pyrido[3,4-b]pyridinecarboxamide] |
| 9.22 | CN(Cc1cc(C(F)(F)F)cc(C(F)(F)F)c1)C(=O)c1c(-c2ccc(F)cc2)c2ccc[n+](C)c2c(=O)n1C [Example 29, 6-[N-[3,5-Bis(trifluoromethyl)benzyl]-N-methylaminocarbonyl]-5-(4-fluorophenyl)-7,8-dihydro-1,7-dimethyl-8-oxopyrido[3,4-b]pyridinium iodide] |
| 8.55 | CN(Cc1cc(C(F)(F)F)cc(C(F)(F)F)c1)C(=O)c1cnc2ccccc2c1-c1ccccn1 [Example 12, N-[3,5-Bis(trifluoromethyl)benzyl]-N-methyl-4-(2-pyridyl)-3-quinolinecarboxamide] |
| 9.00 | CN(Cc1cc(C(F)(F)F)cc(C(F)(F)F)c1)C(=O)c1c(-c2ccccc2)c2scnc2c(=O)n1C [Example 43, N-[3,5-Bis(trifluoromethyl)benzyl]-4,5-dihydro-N, 5-dimethyl-4-oxo-7-phenyl-6-thiazolo[4,5-c]pyridinecarboxamide] |
| 9.21 | CN(Cc1cc(C(F)(F)F)cc(C(F)(F)F)c1)C(=O)c1c(-c2ccccc2)c2ccncc2c(=O)n1C [Example 37, N-[3,5-Bis(trifluoromethyl)benzyl]-1,2-dihydro-N, 2-dimethyl-1-oxo-4-phenyl-3-pyrido[3,4-c]pyridinecarboxamide] |
| 10.32 | CN1CCc2c(-c3ccc(F)cc3)c(C(=O)N(C)Cc3cc(C(F)(F)F)cc(C(F)(F)F)c3)n(C)c(=O)c2C1 [Example 32, N-[3,5-Bis(trifluoromethyl)benzyl]-4-(4-fluorophenyl)-1,2,5,6,7,8-hexahydro-N,2,7-trimethyl-1-oxo-3-pyrido[3,4-c]pyridinecarboxamide] |
| 7.59 | COc1ccccc1CN(C)C(=O)c1c(-c2ccccc2)c2ccsc2c(=O)n1C [Example 46, 6,7-Dihydro-N-(2-methoxybenzyl)-N, 6-dimethyl-7-oxo-4-phenyl-5-thieno[2,3-c]pyridinecarboxamide] |
| 9.44 | CN(Cc1cc(C(F)(F)F)cc(C(F)(F)F)c1)C(=O)c1c(-c2ccc(F)cc2)c2cscc2c(=O)n1C [Example 18, N-[3,5-Bis(trifluoromethyl)benzyl]-7-(4-fluorophenyl)-4,5-dihydro-N, 5-dimethyl-4-oxo-6-thieno[3,4-c]pyridine carboxamide] |
| 8.60 | CN(Cc1cc(C(F)(F)F)cc(C(F)(F)F)c1)C(=O)c1c(-c2cccs2)c2ccccc2c(=O)n1C [Example 21, N[3,5-Bis(trifluoromethyl)benzyl]-1,2-dihydro-N, 2-dimethyl-1-oxo-4-(2-thienyl)-3-isoquinolinecarboxamide] |
| 9.70 | Cc1ccccc1-c1c(C(=O)N(C)Cc2cc(C(F)(F)F)cc(C(F)(F)F)c2)n(C)c(=O)c2sccc12 [Example 47, N-[3,5-Bis(trifluoromethyl)benzyl]-6,7-dihydro-N, 6-dimethyl-4-(2-methylphenyl)-7-oxo-5-thieno[2,3-c]pyridinecarboxamide] |
| 8.74 | CN(Cc1cc(C(F)(F)F)cc(C(F)(F)F)c1)C(=O)c1c(-c2ccc(F)cc2)c2ncsc2c(=O)n1C [Example 40, N-[3,5-Bis(trifluoromethyl)benzyl]-7-(4-fluorophenyl)-4,5-dihydro-N, 5-dimethyl-4-oxo-6-thiazolo[5,4-c]pyridinecarboxamide] |
| 8.30 | CN(Cc1cc(C(F)(F)F)cc(C(F)(F)F)c1)C(=O)c1c(-c2ccc(F)cc2)c2c(c(=O)n1C)CCCN2C [Example 28, N-[3,5-Bis(trifluoromethyl)benzyl]-8-(4-fluorophenyl)-1,2,3,4,5,6-hexahydro-N, 1,6-trimethyl-5-oxo-7-pyrido [4,3-b]pyridinecarboxamide] |
| 8.92 | CN(Cc1cc(C(F)(F)F)cc(C(F)(F)F)c1)C(=O)c1c(-c2ccc(F)cc2)c2cnccc2c(=O)n1C [Example 9, N-[3,5-Bis(trifluoromethyl)benzyl]-4-(4-fluorophenyl)-1,2-dihydro-N, 2-dimethyl-1-oxo-3-pyrido[4,3-c]pyridine carboxamide] |
| 8.68 | CN(Cc1cc(C(F)(F)F)cc(C(F)(F)F)c1)C(=O)c1c(-c2ccccc2)c2c(c(=O)n1C)CCCN2 [Example 51] |
| 9.70 | CN(Cc1cc(C(F)(F)F)cc(C(F)(F)F)c1)C(=O)c1cnc2sccc2c1-c1ccc(F)cc1 [Example 24, N[3,5-Bis(trifluoromethyl)benzyl]-4-(4-fluorophenyl)-N-methyl-5-thieno[2,3-b]pyridinecarboxamide] |
| 9.70 | N-[3,5-Bis(trifluoromethyl)benzyl]-5-(chloro-2-methylphenyl)-7,8-dihydro-N,7-dimethyl-8-oxo-6-pyrido[3,4-b]pyridinecarboxamide and its isomer [Example 11] |

Source: patent US5585385A, “Heterocyclic compounds, their production and use as tachykinin reactor antagonists” (Takeda Chemical Industries, Ltd., priority 1993, dated 1996)
